Source: patent US8431564B2 (Merck Sharp & Dohme B.V., priority 2009, dated 2013)

target: T1, human FSH receptor (Homo sapiens, UniProt P23945); assay: Agonistic activity at the human FSH receptor expressed in CHO cells (CRE-luciferase reporter); assay type: cell-based; conditions: CHO cells stably transfected with human FSH receptor and CRE/luciferase reporter; 4 hours incubation; pEC50 is -log EC50; read-out: hFSHRago (CHO luc) pEC50 (converted)
T1 construct: expressed in transfected cells; host or cells: CHO (Chinese Hamster Ovary) cells, stably transfected, cotransfected with CRE-luciferase reporter
T1 sequence (P23945 18-695): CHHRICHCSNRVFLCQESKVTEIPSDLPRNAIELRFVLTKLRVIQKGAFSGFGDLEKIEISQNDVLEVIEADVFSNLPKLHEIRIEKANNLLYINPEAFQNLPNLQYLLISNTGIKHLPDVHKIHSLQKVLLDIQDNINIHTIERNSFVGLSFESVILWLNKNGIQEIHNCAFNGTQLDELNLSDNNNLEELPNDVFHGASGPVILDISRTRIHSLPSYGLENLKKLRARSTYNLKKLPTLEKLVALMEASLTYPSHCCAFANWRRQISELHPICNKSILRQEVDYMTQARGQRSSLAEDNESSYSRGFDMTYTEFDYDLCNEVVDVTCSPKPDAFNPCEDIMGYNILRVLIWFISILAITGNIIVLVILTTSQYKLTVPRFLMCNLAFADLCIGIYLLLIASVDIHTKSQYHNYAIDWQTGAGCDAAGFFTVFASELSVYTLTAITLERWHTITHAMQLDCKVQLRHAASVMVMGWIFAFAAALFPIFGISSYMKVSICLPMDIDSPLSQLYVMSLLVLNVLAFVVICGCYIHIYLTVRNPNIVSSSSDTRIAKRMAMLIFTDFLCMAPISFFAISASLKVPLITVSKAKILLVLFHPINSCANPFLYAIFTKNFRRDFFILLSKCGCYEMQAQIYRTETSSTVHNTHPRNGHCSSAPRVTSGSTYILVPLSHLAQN
In short: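 Stably transfected CHO cells with CRE-driven firefly luciferase reporter, incubated 4 h at 37° C. with compound (0.0316 nM–10.0 μM, duplicate, 1% DMSO final) in insulin/transferrin-supplemented medium. Luminescence after lysis; EC50 relative to compound's own maximum, efficacy as percent of recombinant human FSH maximum.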

In order of rising EC50:
1. COc1cc2c(cc1-c1cnccn1)-c1c(-c3cccs3)c3c(n1CC2)C(=O)N(C(C)(C)C)CCCOC3 [Compound 7m, 9-tert-butyl-3-methoxy-2-pyrazin-2-yl-15-(2-thienyl)-5,6,9,10,11,12-hexahydro[1,5]oxazonino[8′,7′:4,5]pyrrolo[2,1-a]isoquinolin-8(14H)-one]  17.8 nM
2. COc1cc2c(cc1-c1cccnc1)-c1c(-c3cscn3)c3c(n1CC2)C(=O)N(C(C)(C)C)CCCCC3 [Compound 16t, 2-pyridin-3-yl-9-tert-butyl-3-methoxy-15-(1,3-thiazol-4-yl)-5,6,9,10,11,12,13,14-octahydro-8H-azonino[4′,3′:4,5]pyrrolo[2,1-a]isoquinolin-8-one]  29.5 nM
3. COC(=O)[C@@H]1CCCN1C(=O)c1cc2c(cc1OC)CCn1c3c(c(-c4cccs4)c1-2)CCCCN(C(C)(C)C)C3=O [Compound 26c2, (S)-9-tert-butyl-3-methoxy-14-(thiophen-2-yl)-5,6,10,11,12,13-hexahydroazocino[4′,3′:4,5]pyrrolo[2,1-a]isoquinolin-8(9H)-one-2-carbonyl(1-pyrrolidinyl-2-carboxylate) methyl ester]  37.2 nM
4. COc1cc2c(cc1OC(C)C)-c1c(-c3ccncc3)c3c(n1CC2)C(=O)N(C(C)(C)C)CCOC3 [Compound 18f, 9-tert-butyl-3-methoxy-2-isopropoxy-14-pyridin-4-yl-5,6,10,11-tetrahydro-9H-[1,4]oxazocino[7′,6′:4,5]pyrrolo[2,1-a]isoquinolin-8(13H)-one]  47.9 nM
5. COc1cc2c(cc1OC(C)C)-c1c(-c3cccnc3)c3c(n1CC2)C(=O)N(C(C)(C)C)CCOC3 [Compound 18e, 9-tert-butyl-3-methoxy-2-isopropoxy-14-pyridin-3-yl-5,6,10,11-tetrahydro-9H-[1,4]oxazocino[7′,6′:4,5]pyrrolo[2,1-a]isoquinolin-8(13H)-one]  63.1 nM
6. COc1cc2c(cc1-c1cnccn1)-c1c(-c3cncs3)c3c(n1CC2)C(=O)N(C(C)(C)C)CCCOC3 [Compound 8g, 9-tert-butyl-3-methoxy-2-pyrazin-2-yl-15-(1,3-thiazol-5-yl)-5,6,9,10,11,12-hexahydro[1,5]oxazonino[8′,7′:4,5]pyrrolo[2,1-a]isoquinolin-8(14H)-one]  120 nM
7. COc1cc2c(cc1-c1c(C)nn(C)c1C)-c1c(-c3cccs3)c3c(n1CC2)C(=O)N(C(C)C)CCN(C(C)=O)C3 [Compound 10r, 12-acetyl-9-isopropyl-3-methoxy-14-(2-thienyl)-2-(1,3,5-trimethyl-1H-pyrazol-4-yl)-5,6,10,11,12,13-hexahydro[1,4]diazocino[6′,7′:4,5]pyrrolo[2,1-a]isoquinolin-8(9H)-one]  162 nM
8. CCC(=O)N1CCN(C(C)C)C(=O)c2c(c(-c3cccs3)c3n2CCc2cc(OC)c(OC(C)C)cc2-3)C1 [Compound 14g, 12-propanoyl-9-isopropyl-3-methoxy-2-isopropoxy-14-(2-thienyl)-5,6,10,11,12,13-hexahydro[1,4]diazocino[6′,7′:4,5]pyrrolo[2,1-a]isoquinolin-8(9H)-one]  219 nM
9. COc1cc2c(cc1-c1c(C)nn(C)c1C)-c1c(-c3cccs3)c3c(n1CC2)C(=O)N(C(C)C)CCNC3 [Compound 10q, 9-isopropyl-3-methoxy-2-(1,3,5-trimethyl-1H-pyrazol-4-yl)-14-(2-thienyl)-5,6,10,11,12,13-hexahydro[1,4]diazocino[6′,7′:4,5]pyrrolo[2,1-a]isoquinolin-8(9H)-one]  257 nM
10. COc1cc2c(cc1-c1c(C)nn(C)c1C)-c1c(-c3cccs3)c3c(n1CC2)C(=O)N(C(C)C)CCN(C(=O)CCC(F)(F)F)C3 [Compound 10t, 9-isopropyl-3-methoxy-14-(2-thienyl)-12-(4,4,4-trifluorobutanoyl)-2-(1,3,5-trimethyl-1H-pyrazol-4-yl)-5,6,10,11,12,13-hexahydro[1,4]diazocino[6′,7′:4,5]pyrrolo[2,1-a]isoquinolin-8(9H)-one]  977 nM
